What all share (experiment): NCI tumour cell line growth inhibition, 48 h
Assay [1] relates to ACHN renal.
For assay [2], the system named is CAKI-1 renal.
Assay [3] has as its system CCRF-CEM leukemia.
The test system of assay [4] is HCT-116 colon.
For assay [5], the system named is HL-60(TB) leukemia.
Assay [6] has as its system HOP-92 NSCLC.
Assay [7] concerns MDA-MB-231 breast.
Assay [8] concerns MDA-MB-435.
The subject of assay [9] is NCI-H23 lung.
For assay [10], the system named is NCI-H460 lung.
For assay [11], the system named is NCI/ADR-RES ovarian.
Assay [12] has as its system OVCAR-3 ovarian.
Assay [13] deals with OVCAR-5 ovarian.
Assay [14] concerns RPMI-8226 leukemia.
The test system of assay [15] is SF-268 CNS.
Assay [16] concerns SK-MEL-2 melanoma.
For assay [17], the system named is SK-MEL-28 melanoma.
Assay [18] concerns SN12C renal.
The test system of assay [19] is SR leukemia.

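Method: 48-hour compound exposure of cells in 96-well plates, five concentrations, linear interpolation of endpoints. TGI is the concentration that stops growth completely.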

On to `O=C(/C=C/c1ccccc1)CCN1CCN(CCC(=O)/C=C/c2ccccc2)CC1`, for which the TGI in assay [1] is 29.5 µM; in assay [2], 31.9 µM; in [3], 28.1 µM; in assay [4], 5.28 µM; in assay [5], > 100 µM; in assay [6] it was 35.9 µM. The TGI stood at 17 µM in assay [7]; 14.8 µM in assay [8]; 31.2 µM in [9]; 31 µM in assay [10]; 60.7 µM in assay [11]; 30.7 µM in [12]. Besides, the TGI is 30.5 µM in assay [13]; > 100 µM in assay [14]; 29.2 µM in [15]; 37.5 µM in assay [16]; 27.8 µM in assay [17]; 21.7 µM in assay [18].

Regarding `COc1cc(Cn2c3ccccc3c3cc(C)c4c(c32)C=CC(C)(CCC=C(C)C)O4)cc2c1[nH]c1ccccc12` (stereo not given), the TGI in assay [1], in assay [2], in [3], in [4], in assay [5] and in assay [6] was > 100 µM throughout. The TGI in assay [9], in assay [10], in assay [12], in [13], in [14] and in assay [15] was > 100 µM in each case. For the same compound, the TGI in [16], in assay [17], in assay [18] and in assay [19] was > 100 µM throughout.

Turning to `O=[N+]([O-])C(C(Cl)=C(Cl)Cl)=C(N(Cc1ccccc1)Cc1ccccc1)N(Cc1ccccc1)Cc1ccccc1`, the TGI in [1] is > 100 µM; in [2] it was > 100 µM; in assay [3], 60.6 µM; in assay [4] it was > 100 µM; in assay [5] it was 78 µM; in assay [6] it was 57.1 µM. The TGI in assay [7] is > 100 µM; in assay [8], 79.8 µM; in [9], > 100 µM; in [10] it was > 100 µM; in [11], > 100 µM; in assay [12] it was > 100 µM. For the same compound, the TGI in [13] is > 100 µM; in [15] it was > 100 µM; in assay [16], 98.3 µM; in assay [17] it was > 100 µM; in [18] it was > 100 µM.

For the compound `N#CCc1nc2ccccc2c(=O)[nH]1`, the TGI in assay [1], in [2], in assay [4], in assay [5], in [6] and in assay [7] was > 100 µM in each case. The TGI in assay [8], in assay [9], in [10], in assay [11], in assay [12] and in [13] was > 100 µM in each case. In addition, the TGI in assay [16], in [17] and in assay [18] was > 100 µM in each case.

With `CCOC(=O)c1ccc(N=C2C(=S)N(c3ccc(C(=O)OCC)cc3)C(=N)N2/N=C/c2ccccc2)cc1`, the TGI in assay [2] was 42.2 µM; in [4] it was 30.5 µM; in [6], 36.2 µM; in assay [7] it was 32.6 µM; in [10], > 100 µM; in assay [11] it was > 100 µM. Moreover, the TGI in assay [12] was 28.8 µM; in assay [13] it was 40.5 µM; in assay [14], > 100 µM; in assay [15], 52 µM; in assay [16], > 100 µM; in [18], 41.3 µM. Moreover, in [19], the TGI is > 100 µM.

Take `O=C(COc1ccc2c(=O)cc(-c3ccccc3)oc2c1)N1CCN(c2ccccc2)CC1`: the TGI in [1] was > 100 µM; in assay [3] it was > 100 µM; in assay [4] it was > 100 µM; in assay [5], 87.3 µM; in assay [9], > 100 µM; in [10] it was > 100 µM. Moreover, the TGI in assay [12] was > 100 µM; in assay [13], > 100 µM; in assay [14], > 100 µM; in assay [15], > 100 µM; in [16], 77.8 µM; in assay [17] it was > 100 µM. In addition, the TGI in assay [18] was > 100 µM.

For `O=C1C(Br)=CC2(C=C1Br)CCNC1=C2C(=O)c2ccccc2C1=O`, the TGI in [1] worked out at 27.9 µM; in assay [2] it was 72.4 µM; in assay [3] it was 19 µM; in [4] it was 17.6 µM; in [5], 13.3 µM; in assay [9] it was 33.7 µM. In addition, the TGI was > 100 µM in assay [12]; 41 µM in assay [14]; 63.3 µM in [15]; 34.7 µM in assay [16]; 19.6 µM in assay [18].

`Cn1cnc(CCc2ccccc2)n1`: the TGI in assay [1], in [2], in assay [3], in assay [4], in [5] and in [6] was > 100 µM each time. The TGI in assay [9], in assay [10], in assay [12], in assay [13], in assay [14] and in assay [15] was > 100 µM each time. In addition, the TGI in [16], in [17], in [18] and in assay [19] was > 100 µM each time.

Consider `CCN(CC)CCCNc1nc(=O)[nH]c(C)c1C(=O)Nc1cccc2cc3ccccc3cc12`, for which the TGI in assay [1], in [2], in [3], in assay [4], in assay [5] and in [6] was > 100 µM each time. For the same compound, the TGI in assay [7], in [8], in assay [9], in [11], in assay [12] and in assay [13] was > 100 µM each time. The TGI in assay [14], in assay [16], in assay [17] and in assay [18] was > 100 µM in each case.

For the origin of these results see PubChem BioAssay (NCI).
